# Data reported in US7700763B2, “3-triazolyl-galactoside inhibitors of galectins” (Forskarpatent I Syd AB, priority 2004, dated 2010).
# Where two headings read alike, the source gives them in different places.
# Legend:
# [1] = biological target: T1, Recombinant human galectin-3 (Homo sapiens, UniProt P17931); assay: fluorescence polarization-based galectin-3 inhibition assay; format: binding
# T1 construct: made in house; host or cells: Escherichia coli
# Procedure: NMR-spectra were recorded with a Bruker DRX-400 instrument. Chemical shifts are given in ppm, with reference to internal residual solvent peaks. Chemical shifts and coupling constants were obtained from ^1H-NMR and proton resonances were assigned from COSY experiments. High-resolution FAB mass spectra (HRMS) were recorded with a JEOL SX-120 instrument. Fluorescence polarization experiments were performed on a PolarStar instrument (BMG, Offenburg; Germany). Column chromatography was performed on SiO2 (Matrex, 60 Å, 35-70 μm, Grace Amicon) and TLC was carried out on SiO2 60 F254 (Merck) with detection under UV light and developed with aqueous sulfuric acid. Concentrations were made using rotary evaporation with bath temperature at or below 40° C. CH2Cl2 and CH3CN were dried by distillation from CaH2. Microwell plates were from Costar, Corning, N.Y. (black polystyrene). Recombinant human galectin-3 was produced in Escherichia coli and purified as previously described (S. M. Massa et al, 1993). PBS was 118 mM NaCl, 67 mM Na/K-phosphate, pH 7.2, 2 mM EDTA, 4 mM β-mercaptoethanol.
# To 100 μL of galectin-3 (1 μM) and a fluorescent probe (2-(fluorescein-5/6-yl-carbonyl)-aminoethyl 4-O-[3-O-(4-methoxy]benzyl)-β-D-galactopyranosyl]-β-D-glucopyranoside, 0.1 μM) were added inhibitor solution (3.2-10000 μM, 100 μL), the plate was incubated under slow rotary shaking in the dark for 5 minutes, and fluorescence polarization measured at room temperature. The fluorescence was measured from above in 96 well microtiter plates (black polystyrene, Costar, Corning, N.Y.) using a PolarStar instrument (BMG, Offenburg; Germany). Control wells containing only fluorescent probe or fluorescein were included. All dilutions and measurements were done in PBS.
# galectins = settings: cited from earlier work
# [2] = galectin-3, fluorescence polarization
# T1 sequence (P17931 whole entry): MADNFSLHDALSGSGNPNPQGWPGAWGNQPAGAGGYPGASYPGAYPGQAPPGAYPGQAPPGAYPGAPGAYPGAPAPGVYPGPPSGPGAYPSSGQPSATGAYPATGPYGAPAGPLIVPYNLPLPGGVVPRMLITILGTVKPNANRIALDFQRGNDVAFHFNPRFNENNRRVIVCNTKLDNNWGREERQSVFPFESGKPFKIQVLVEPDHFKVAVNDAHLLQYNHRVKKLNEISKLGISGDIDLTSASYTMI
compound,measurement,setting,value
"CS[C@@H]1O[C@H](CO)[C@H](O)[C@H](n2ccnn2)[C@H]1O [Compound 8, Methyl 3-deoxy-3-(1H-[1,2,3]-triazol-1-yl)-1-thio-β-D-galactopyranoside]",Kd,[1]; read-out: Calculated Kd,2.1e+07 nM
"CCCc1cn([C@H]2[C@@H](O)[C@@H](CO)O[C@@H](SC)[C@@H]2O)nn1 [Compound 9, Methyl 3-deoxy-3-(4-propyl-1H-[1,2,3]-triazol-1-yl)-1-thio-β-D-galactopyranoside]",Kd,[1]; read-out: Calculated Kd,4.62e+06 nM
"COC(=O)c1cn([C@H]2[C@@H](O)[C@@H](CO)O[C@@H](SC)[C@@H]2O)nn1 [Compound 10, Methyl 3-(4-methoxycarbonyl-1H-[1,2,3]-triazol-1-yl)-3-deoxy-1-thio-β-D-galactopyranoside]",Kd,[1]; read-out: Calculated Kd,1.41e+06 nM
"CS[C@@H]1O[C@H](CO)[C@H](O)[C@H](n2cc(C3(O)CCCCC3)nn2)[C@H]1O [Compound 11, Methyl 3-deoxy-3-(4-(1-hydroxy-1-cyclohexyl)-1H-[1,2,3]-triazol-1-yl)-1-thio-β-D-galactopyranoside]",Kd,[1]; read-out: Calculated Kd,1.38e+06 nM
"CS[C@@H]1O[C@H](CO)[C@H](O)[C@H](n2cc(-c3ccccc3)nn2)[C@H]1O [Compound 12, Methyl 3-deoxy-3-(4-phenyl-1H-[1,2,3]-triazol-1-yl)-1-thio-β-D-galactopyranoside]",improvement in Kd in comparison with the reference inhibitor 27,[1]; [2],50 fold
same,Kd,[1]; read-out: Calculated Kd,147000 nM
"CS[C@@H]1O[C@H](CO)[C@H](O)[C@H](n2cc(S(=O)(=O)c3ccc(C)cc3)nn2)[C@H]1O [Compound 13, Methyl 3-deoxy-3-(4-p-tolylsulfonyl-1H-[1,2,3]-triazol-1-yl)-1-thio-β-D-galactopyranoside]",improvement in Kd in comparison with the reference inhibitor 27,[1]; [2],50 fold
same,Kd,[1]; read-out: Calculated Kd,141000 nM
"CNC(=O)c1cn([C@H]2[C@@H](O)[C@@H](CO)O[C@@H](SC)[C@@H]2O)nn1 [Compound 14, Methyl 3-(4-methylaminocarbonyl-1H-[1,2,3]-triazol-1-yl)-3-deoxy-1-thio-β-D-galactopyranoside]",Kd,"[1]; affinity for galectin-3 calculated from test by fluorescence polarization at one tested conc., galectin-3 1 μM, probe 0.1 μM, PBS, room temperature, read-out: Calculated Kd",230000 nM
"CCCCNC(=O)c1cn(C2C(O)[C@H](SC)OC(CO)[C@@H]2O)nn1 (stereo partly drawn) [Compound 15, Methyl 3-(4-butylaminocarbonyl-1H-[1,2,3]-triazol-1′-yl)-3-deoxy-1-thio-β-D-galactopyranoside]",improvement in Kd in comparison with the reference inhibitor 27,[1]; [2],50 fold
same,Kd,[1]; read-out: Calculated Kd,124000 nM
"CS[C@@H]1O[C@H](CO)[C@H](O)[C@H](n2cc(C(=O)NCc3ccccc3)nn2)[C@H]1O [Compound 16, Methyl 3-(4-benzylaminocarbonyl-1H-[1,2,3]-triazol-1-yl)-3-deoxy-1-thio-β-D-galactopyranoside]",improvement in Kd in comparison with the reference inhibitor 27,[1]; [2],50 fold
"CS[C@@H]1O[C@H](CO)[C@H](O)[C@H](n2cc(C(=O)NCCCO)nn2)[C@H]1O [Compound 17, Methyl 3-{4-(3-hydroxyprop-1-ylaminocarbonyl)-1H-[1,2,3]-triazol-1-yl}-3-deoxy-1-thio-β-D-galactopyranoside]",Kd,[1]; read-out: Calculated Kd,386000 nM
"CS[C@@H]1OC(CO)[C@H](O)C(n2cc(C(=O)NCCN3CCOCC3)nn2)C1O (stereo partly drawn) [Compound 18, Methyl 3-{4-[2-(N-morpholino)-ethylaminocarbonyl]-1H-[1,2,3]-triazol-1-yl}-3-deoxy-1-thio-β-D-galactopyranoside]",Kd,[1]; read-out: Calculated Kd,571000 nM
"CNC(=O)c1cn([C@H]2[C@@H](O)[C@@H](CO)O[C@@H](S[C@@H]3O[C@H](CO)[C@H](O)[C@H](n4cc(C(=O)NC)nn4)[C@H]3O)[C@@H]2O)nn1 [Compound 26, Bis-(3-deoxy-3-{4-[(methylamino)carbonyl]-1H-1,2,3-triazol-1-yl}-β-D-galactopyranosyl)sulfane]",Kd,"[1]; galectin-3, fluorescence polarization, value given in text in nM, read-out: Kd",150 nM
O=C[C@H](O)[C@@H](O)[C@@H](O)[C@H](O)CO [D-galactose],affinity lower than lactose,"galectins; galectins, relative to lactose",50-100 times
OC[C@H]1O[C@@H](O[C@H]2[C@H](O)[C@@H](O)C(O)O[C@@H]2CO)[C@H](O)[C@@H](O)[C@H]1O (some centres unmarked) [lactose],Kd,"galectins; all galectins, reviewed by Leffler, 2001 and Leffler et al., 2004",500 to 1000 µM
